The term IC50 denotes the midpoint of a concentration-inhibition curve. As a reminder, the melting point is the temperature of the solid-liquid transition. By inhibition is commonly meant the share of the control response that was lost under treatment.

Each structure is given as a SMILES string. Where two headings read alike, the source gives them in different places. A value given as a limit tells only on which side of the number the result lay.

Data set [1] has as its target T1, hD3 (Homo sapiens, UniProt P35462).
T1 construct: purchased BioSignal Packard Inc., Montreal, Canada
The experiment in a line: Radioligand binding, dopamine D3 ([3H]spiperone). The note with it: Table 4; [3H]spiperone 1 nM; read-out: Binding affinity, IC50 (nM) D3. The procedure, abridged: (§1)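 Membrane competition binding with [3H]spiperone (1 nM) for hD2L and hD3, or [3H]YM-09151-2 (0.06 nM) for hD4.2, each in receptor-specific Tris-HCl pH 7.4 buffer containing Mg2+/EDTA (D3 and D4 also with K+, Ca2+; D3 with 120 mM NaCl). Compounds were tested at 7-8 concentrations in duplicate, and IC50 was derived by nonlinear regression across three assays.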

Data set [2] deals with T2, Human serotonin 5-HT6 receptor (Homo sapiens, UniProt P50406).
T2 construct: made in house; host or cells: insect Sf21 cells (baculovirus vector BacPAK8)
Kind of data set: [3H]LSD binding assay on cloned 5-HT6 receptor membranes. The note with it: for binding affinity at 5-HT6 receptor labeled by [3H]LSD, in words: comment on Table 2.

For data set [3], the target named is 5-HT6 receptors (Homo sapiens, UniProt P50406). The experiment in a line: Adenylyl cyclase activity (cAMP accumulation) in HeLa cells transfected with human 5-HT6 receptor. In kind it is cell-based. The note with it: for increase in cAMP level inhibited (FIG. 1): 5-HT-induced cAMP increase.
For data set [4], the target named is T3, 5-HT1a (Homo sapiens, UniProt P08908).
T3 construct: purchased Euroscreen/BioSignal Packard Inc
T3 sequence (P08908 1-422): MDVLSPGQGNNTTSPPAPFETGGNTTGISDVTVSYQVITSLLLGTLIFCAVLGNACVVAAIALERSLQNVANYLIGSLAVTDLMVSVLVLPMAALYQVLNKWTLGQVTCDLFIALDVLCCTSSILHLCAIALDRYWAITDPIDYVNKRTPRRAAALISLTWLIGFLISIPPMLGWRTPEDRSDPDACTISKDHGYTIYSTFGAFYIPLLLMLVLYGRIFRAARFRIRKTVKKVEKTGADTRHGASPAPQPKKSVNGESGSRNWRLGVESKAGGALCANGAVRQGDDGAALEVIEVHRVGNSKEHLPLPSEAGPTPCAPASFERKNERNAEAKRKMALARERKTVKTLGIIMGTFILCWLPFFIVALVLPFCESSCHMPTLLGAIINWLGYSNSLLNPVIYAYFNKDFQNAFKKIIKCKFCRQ
The experiment in a line: Radioligand binding, 5-HT1a ([3H]8-OH-DPAT). The note with it: Table 4; [3H]8-OH-DPAT 0.5 nM; read-out: Binding affinity, IC50 (nM) 5-HT1a. An outline of the steps:
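Binding was measured on commercial receptor membrane preparations, following the membrane supplier's own test protocol.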

Data set [5] deals with T4, 5-HT7 (Homo sapiens, UniProt P34969).
T4 construct: purchased Euroscreen/BioSignal Packard Inc
The experiment in a line: Radioligand binding, 5-HT7 ([3H]LSD). The note with it: Table 4; [3H]LSD 3 nM; read-out: Binding affinity, IC50 (nM) 5-HT7.

Data set [6] relates to rats. Kind of data set: Methamphetamine-induced disruption of prepulse inhibition (PPI) in rats. The note with it: administered 30 min before methamphetamine. It is filed as in vivo, rat. The protocol:
To assay antipsychotic properties of the compounds according to the invention, prepulse inhibition (PPI) of acoustic startle in animals was performed. Startle response was measured using SR-LAB startle chamber (San Diego Instruments, San Diego, USA). The animal enclosure was housed in a ventilated and sound-attenuated startle chamber with 60 dB ambient noise level, and consisted of a Plexiglas cylinder 40 mm in diameter on a platform, connected to a piezoelectric accelerometer which detects and transducer motion within the cylinder. Acoustic noise bursts were presented through a loudspeaker mounted 24 ? above the animal. […] Each startle session began with a 5-min acclimatization period in the chamber to 68 dB background noises. The test session consisting of the following four different trial types was carried for all experiments: a 40 ms broadband 120 dB burst (P; pulse alone trial), P preceded 100 ms earlier by a 20 ms noise burst 10 dB above background (pP; prepulse+pulse trial), a 40 ms broadband 78 dB burst (prepulse alone trial), and a no stimulus trial (background). Eight trials of each type were presented in a pseudorandom order (total32 trials) with an average interval of 15 sec. separating each trial. An extra 5 pulse-alone trials were presented at the beginning and end of each test session, but were not used in the calculation of PPI values. PPI was defined as the percent reduction in startle amplitude in the presence of prepulse compared to the amplitude in the absence of the prepulse using the following Math Equation 1. […] Differences were considered significant at P<0.05. Statistical analyses were conducted using SigmaStat software (SigmaStat, Jandel Co., San Rafael, Calif.). The data were expressed as means±SEM.

Data set [7] deals with T5, hD2L (Homo sapiens, UniProt P14416).
T5 construct: purchased BioSignal Packard Inc., Montreal, Canada
The experiment in a line: Radioligand binding, dopamine D2 ([3H]spiperone). The note with it: Table 4; [3H]spiperone 1 nM; read-out: Binding affinity, IC50 (nM) D2. An outline of the steps: as §1

The target of data set [8] is T6, hD4.2 receptor (Homo sapiens, UniProt P21917, DEL265-296).
T6 construct: purchased BioSignal Packard Inc., Montreal, Canada
T6 sequence (P21917 with tags, fused parts or gaps DEL265-296): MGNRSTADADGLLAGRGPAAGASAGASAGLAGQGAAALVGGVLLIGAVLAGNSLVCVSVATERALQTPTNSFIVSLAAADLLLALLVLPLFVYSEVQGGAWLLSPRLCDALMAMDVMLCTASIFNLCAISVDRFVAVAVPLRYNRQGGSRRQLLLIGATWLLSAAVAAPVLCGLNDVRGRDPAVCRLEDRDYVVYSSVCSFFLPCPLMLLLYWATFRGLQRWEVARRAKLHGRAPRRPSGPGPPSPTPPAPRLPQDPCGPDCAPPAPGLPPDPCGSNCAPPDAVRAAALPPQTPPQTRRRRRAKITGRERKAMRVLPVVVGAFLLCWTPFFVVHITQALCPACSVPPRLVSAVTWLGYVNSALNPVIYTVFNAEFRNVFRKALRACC
Kind of data set: Radioligand binding, dopamine D4 ([3H]YM-09151-2). The note with it: Table 4; [3H]YM-09151-2 0.06 nM; read-out: Binding affinity, IC50 (nM) D4. The procedure, abridged: as §1

Setting [9] is: Table 2, 1.87 nM [3H]LSD, 37 C, 60 min, read-out: IC50 (nM), binding affinity to the 5-HT6 receptor.
Where [10] appears, read: Table 4, read-out: Binding affinity, IC50 (nM) 5-HT6.
Setting [11] is: HeLa, read-out: inhibition of 0.3 μM serotonin (5-HT)-induced increase in cAMP levels.

T2 sequence (P50406 whole entry): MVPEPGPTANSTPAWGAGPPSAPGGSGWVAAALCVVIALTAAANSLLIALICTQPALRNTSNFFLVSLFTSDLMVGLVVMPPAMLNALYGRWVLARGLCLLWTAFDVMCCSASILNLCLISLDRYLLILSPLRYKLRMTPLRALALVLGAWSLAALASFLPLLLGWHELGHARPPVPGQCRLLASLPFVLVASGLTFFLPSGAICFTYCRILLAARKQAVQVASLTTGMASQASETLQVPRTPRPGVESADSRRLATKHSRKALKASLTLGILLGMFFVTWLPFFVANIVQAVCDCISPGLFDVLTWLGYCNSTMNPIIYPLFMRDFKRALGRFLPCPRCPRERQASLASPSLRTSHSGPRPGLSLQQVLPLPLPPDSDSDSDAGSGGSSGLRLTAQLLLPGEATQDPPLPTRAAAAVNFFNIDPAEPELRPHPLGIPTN
5-HT6 receptors, sequence (P50406 whole entry): as above
T1 sequence (P35462 whole entry): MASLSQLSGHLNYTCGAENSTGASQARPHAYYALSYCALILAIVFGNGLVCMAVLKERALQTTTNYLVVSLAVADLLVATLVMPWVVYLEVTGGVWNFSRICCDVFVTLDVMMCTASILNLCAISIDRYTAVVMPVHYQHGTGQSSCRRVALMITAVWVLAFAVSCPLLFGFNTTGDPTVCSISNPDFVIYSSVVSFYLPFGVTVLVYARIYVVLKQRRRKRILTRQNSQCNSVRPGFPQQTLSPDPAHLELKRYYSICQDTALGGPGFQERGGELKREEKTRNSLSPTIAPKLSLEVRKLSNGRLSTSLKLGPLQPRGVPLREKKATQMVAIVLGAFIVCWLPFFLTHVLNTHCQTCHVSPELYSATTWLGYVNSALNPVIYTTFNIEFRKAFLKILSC
T4 sequence (P34969 whole entry): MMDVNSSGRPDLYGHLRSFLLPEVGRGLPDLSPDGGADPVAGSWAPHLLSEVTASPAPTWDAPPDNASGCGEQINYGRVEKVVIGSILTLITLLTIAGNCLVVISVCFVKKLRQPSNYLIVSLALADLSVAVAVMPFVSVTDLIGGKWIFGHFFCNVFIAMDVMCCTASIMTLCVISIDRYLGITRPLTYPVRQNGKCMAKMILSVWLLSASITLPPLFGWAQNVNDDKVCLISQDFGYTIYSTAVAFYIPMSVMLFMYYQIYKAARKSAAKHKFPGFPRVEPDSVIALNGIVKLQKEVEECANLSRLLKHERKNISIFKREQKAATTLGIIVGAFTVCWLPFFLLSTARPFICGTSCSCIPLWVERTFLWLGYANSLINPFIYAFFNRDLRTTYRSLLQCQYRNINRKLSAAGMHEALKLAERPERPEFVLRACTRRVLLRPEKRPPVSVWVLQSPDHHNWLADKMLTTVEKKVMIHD
T5 sequence (P14416 whole entry): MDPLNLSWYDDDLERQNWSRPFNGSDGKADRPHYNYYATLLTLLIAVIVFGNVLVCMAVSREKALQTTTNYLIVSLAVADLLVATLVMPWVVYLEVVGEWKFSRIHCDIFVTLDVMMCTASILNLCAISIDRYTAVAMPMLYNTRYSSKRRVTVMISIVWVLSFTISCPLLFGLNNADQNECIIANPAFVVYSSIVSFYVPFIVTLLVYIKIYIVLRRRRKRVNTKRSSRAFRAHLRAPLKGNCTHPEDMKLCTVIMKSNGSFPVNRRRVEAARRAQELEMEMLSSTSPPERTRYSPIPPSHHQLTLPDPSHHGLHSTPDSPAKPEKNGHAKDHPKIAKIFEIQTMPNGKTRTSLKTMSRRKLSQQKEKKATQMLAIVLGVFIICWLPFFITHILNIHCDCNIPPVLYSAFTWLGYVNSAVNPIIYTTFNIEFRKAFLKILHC

Regarding `COc1ccc(C2(C)C(=O)c3c(N4CCNCC4)cc(Cl)cc3N(Cc3ccccc3)C2=O)cc1` (racemic) [Example 13, 1-Benzyl-7-chloro-3-(4-methoxy-phenyl)-3-methyl-5-piperazin-1-yl-1H-quinoline-2,4-dione], the melting point was 120 to 123 °C. The IC50 in [1] worked out at 345 nM. Moreover, the IC50 in data set [2] (setting [9]) was determined as 0.9 nM. Moreover, the IC50 in data set [2] (setting [10]) was 0.9 nM. For the same compound, the “binding affinity at 5-HT6 receptor labeled by [3H]LSD, in words” value in data set [2] was “significant affinities”. For the same compound, the “increase in cAMP level inhibited (FIG. 1)” value in data set [3] was “inhibited”. Further, the IC50 in data set [4] came out at 1360 nM. Also, the IC50 in data set [5] is 9000 nM. Moreover, the “mean startle amplitude compared with methamphetamine group” value in data set [6] is “no significant differences”. In addition, the IC50 in data set [7] was above 10000 nM. In data set [8], the IC50 was above 10000 nM.

The compound `CC1(c2ccc(O)cc2)C(=O)c2c(N3CCNCC3)cc(Cl)cc2N(Cc2ccccc2)C1=O` (racemic) [Example 14, 1-Benzyl-7-chloro-3-(4-hydroxy-phenyl)-3-methyl-5-piperazin-1-yl-1H-quinoline-2,4-dione] returned a melting point of 197 to 200 °C. In data set [1], the IC50 amounted to 1500 nM. In data set [2] (setting [9]), the IC50 stood at 1 nM. Moreover, in [2] (setting [10]), the IC50 was 1 nM. The “binding affinity at 5-HT6 receptor labeled by [3H]LSD, in words” value in data set [2] is on record as “significant affinities”. For the same compound, in data set [3], the IC50 amounted to 0.0287 µM and the “increase in cAMP level inhibited (FIG. 1)” value was “inhibited”. In data set [3] (setting [11]), the inhibition at 0.001 µM was determined as 10%, the inhibition at 0.01 µM was 22%, the inhibition at 0.1 µM is 81% and the inhibition at 1 µM turned out to be 100%. Moreover, in data set [3] (setting [11]), the inhibition at 10 µM was 100%. Also, the IC50 in data set [4] is above 10000 nM. Moreover, in data set [5], the IC50 is 3570 nM. Further, in [6], the “mean startle amplitude compared with methamphetamine group” value is “no significant differences”. Moreover, in data set [7], the IC50 was above 10000 nM. Moreover, in data set [8], the IC50 was above 10000 nM.

For the origin of these results see patent US20080275058A1, “N-Substituted-1H-Quinoline-2,4-Diones, Preparation Method Thereof, And Pharmaceutical Composition Containing The Same” (KOREA RESEARCH INSTITUTE OF CHEMICAL TECHNOLOGY, priority 2005, published 2008).
